We go through 22 compounds from patent US20090137499A1, “BENZYLPHENYL GLUCOPYRANOSIDE DERIVATIVE” (priority 2006, published 2009).

The assay has as its target T1, human SGLT2 (Homo sapiens, UniProt P31639).
T1 construct: expressed in transfected cells
T1 sequence (P31639 1-672): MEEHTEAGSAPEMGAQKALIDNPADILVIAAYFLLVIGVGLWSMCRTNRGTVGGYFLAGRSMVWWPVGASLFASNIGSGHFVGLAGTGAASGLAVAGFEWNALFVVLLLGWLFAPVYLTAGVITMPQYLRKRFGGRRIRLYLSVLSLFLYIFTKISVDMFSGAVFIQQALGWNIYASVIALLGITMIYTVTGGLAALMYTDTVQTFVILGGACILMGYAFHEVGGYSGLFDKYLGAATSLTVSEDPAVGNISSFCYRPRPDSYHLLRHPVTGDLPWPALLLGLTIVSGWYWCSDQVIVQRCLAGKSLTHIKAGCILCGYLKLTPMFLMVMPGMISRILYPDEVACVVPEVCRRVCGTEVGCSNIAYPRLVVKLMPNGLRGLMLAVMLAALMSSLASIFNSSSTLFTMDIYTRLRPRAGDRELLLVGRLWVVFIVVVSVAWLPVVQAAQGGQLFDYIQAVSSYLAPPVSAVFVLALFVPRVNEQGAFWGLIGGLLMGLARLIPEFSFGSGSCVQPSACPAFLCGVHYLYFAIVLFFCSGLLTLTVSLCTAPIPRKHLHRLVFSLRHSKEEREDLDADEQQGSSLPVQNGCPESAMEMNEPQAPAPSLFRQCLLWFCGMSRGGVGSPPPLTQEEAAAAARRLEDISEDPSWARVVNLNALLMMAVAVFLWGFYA
The assay can be described thus: Determination of SGLT2 inhibiting activity using human SGLT2 expressing cell ([14C]-α-methyl-D-glucopyranoside uptake). The assay is classed as cell-based. The note with it: HEK-SGLT2 cells, 1 mM [14C]-α-methyl-D-glucopyranoside, 37° C., 30 min. On the procedure:
Determination of SGLT2 Inhibiting Activity Using Human SGLT2 Expressing Cell
1) Preparation of Vector Expressing Human SGLT2 cDNA in Animal Cell
Amplification was performed by PCR using human SGLT2 cDNA clone (Origene: Clone Number, TC303267; GenBank accession number, NM 003041) as a template. The sense oligonucleotide primer for PCR was 5′-[…]-3′ (Primer 3: SEQ ID NO: 3 in the sequence listing),
and the antisense oligonucleotide primer was 5′-[…]-3′ (Primer 4: SEQ ID NO: 4 in the sequence listing). The PCR product was subjected to agarose electrophoresis, then a target DNA fragment was recovered from a single band corresponding to 2037 bases, digested with restriction enzymes HindIII and XhoI, and introduced into the HindIII/XhoI site of vector pCMV-Script (Stratagene) to obtain SGLT2 expressing plasmid pCMV-SGLT2. A HindIII/XhoI fragment was excised from pCMV-SGLT2 and introduced into the BamHI/XhoI site of pENTR1A (Gateway, Invitrogen) to prepare pENTR-SGLT2. Retrovirus vector pLPCX (Clontech) into which Gateway Vector Conversion System Cassette A (Invitrogen) was introduced was used as the destination plasmid to prepare SGLT2 expressing retrovirus vector pLPCX-SGLT2.
2) Establishment of Human SGLT2 Expressing Cell
The retrovirus pLPCX-SGLT2 obtained in 1) was transfected into integrin αvβ3 expressing HEK-293 cells, the cells were treated with antibiotic G418 (brand name, Geneticin: Invitrogen) and puromycin (Clontech) to obtain HEK-SGLT2 cells stably expressing the target vector having resistance. The stably expressing cells were cultured and maintained in DMEM medium containing […] G418, […] puromycin, 3 mM KGT-1075, and 10% FBS.
3) Determination of SGLT2 Inhibiting Activity
HEK-SGLT2 cells were suspended at a density of 10^6 cells/mL in DMEM medium containing 250 mg/mil G418, 1 mg/ml puromycin, and 10% FBS, and 100 μL was seeded in each well of a type 1 collagen-coated 96-well culture plate (Corning). On the following day, the medium was replaced with a sugar uptake buffer (10 mM HEPES [pH 7.5], 5 mM Tris-HCl [pH 7.5], 140 mM NaCl, 2 mM KCl, 1 mM CaCl2, 1 mM MgCl2), and the cells were cultured with 1 mM [^14C]-α-methyl-D-glucopyranoside (0.1 mCi) and a test compound at 37° C. for 30 min, and then washed 3 times with a washing buffer (10 mM HEPES (pH 7.5), 5 mM Tris-HCl (pH 7.5), 140 mM choline chloride, 2 mM KCl, 1 mM CaCl2, 1 mM MgCl2). 100 μL of liquid scintillation cocktail (brand name, Supermix: Perkin-Elmer) was added to each well of the 96-well plate and stirred for 10 min, and then radioactivity was determined with micro β (Perkin-Elmer), a type of liquid scintillation counter. The value obtained by deducting the radioactivity in the presence of an excess amount of an SGLT2 inhibiting compound as the background from each measured value was taken as the sugar uptake activity, the inhibition rate (%) was calculated from the control sugar uptake activity obtained without using a test compound and the sugar uptake activity obtained using a test compound having a predetermined concentration, and the concentrations of the test compound at which the sugar uptake activity was inhibited by 50% were assessed.

By IC50 is commonly meant the concentration at which inhibition is half-maximal. Read a high IC50 as a need for much substance. The compound `COc1ccc(Cc2ccc(CO)cc2O[C@@H]2O[C@H]([C@@H](C)O)[C@@H](O)[C@H](O)[C@H]2O)cc1` [Example 9, 2-(4-Methoxybenzyl)-5-hydroxymethylphenyl 7-deoxy-D-glycero-β-D-gluco-heptopyranoside] showed an IC50 of 9.4 nM. The figure for `COc1ccc(Cc2cc(CO)cnc2O[C@@H]2O[C@H]([C@@H](C)O)[C@@H](O)[C@H](O)[C@H]2O)cc1` [Example 38, 3-(4-Methoxybenzyl)-5-hydroxymethylpyridin-2-yl 7-deoxy-D-glycero-β-D-gluco-heptopyranoside] is 17 nM. As to `CCc1ccc(Cc2ccc(N)cc2O[C@@H]2O[C@H](C(C)O)[C@@](C)(O)[C@H](O)[C@H]2O)cc1` (stereo partly drawn) [Example 41, 5-Amino-2-(4-ethylbenzyl)phenyl 4-C-methyl-7-deoxy-glycero-β-D-gluco-heptapyranoside], 14 nM corresponded to half-maximal inhibition (IC50). The IC50 values of the last two compounds are within 1.5-fold of each other. With `COc1ccc(Cc2c(Cl)cccc2O[C@@H]2O[C@H]([C@@H](C)O)[C@@H](O)[C@H](O)[C@H]2O)cc1` [Example 42, 3-Chloro-2-(4-methoxybenzyl)phenyl 7-deoxy-D-glycero-β-D-gluco-heptopyranoside] the figure was 18 nM. Take `COc1ccc(Cc2c(Cl)cc(C)cc2O[C@@H]2O[C@H]([C@@H](C)O)[C@@H](O)[C@H](O)[C@H]2O)cc1` [Example 43, 3-Chloro-5-methyl-2-(4-methoxybenzyl)phenyl 7-deoxy-D-glycero-β-D-gluco-heptopyranoside]: the IC50 turned out to be 61 nM. As to `COc1ccc(Cc2c(Cl)cc(CO)cc2O[C@@H]2O[C@H]([C@@H](C)O)[C@@H](O)[C@H](O)[C@H]2O)cc1` [Example 44, 3-Chloro-5-hydroxymethyl-2-(4-methoxybenzyl)phenyl 7-deoxy-D-glycero-β-D-gluco-heptopyranoside], the IC50 amounted to 10 nM. The figure for `CCOc1ccc(Cc2c(Cl)cc(CO)cc2O[C@@H]2O[C@H]([C@@H](C)O)[C@@H](O)[C@H](O)[C@H]2O)cc1` [Example 45, 3-Chloro-2-(4-ethoxybenzyl)-5-hydroxymethyl-phenyl 7-deoxy-D-glycero-β-D-gluco-heptopyranoside] is 45 nM. The compound `CCOc1ccc(Cc2c(F)cc(CO)cc2O[C@@H]2O[C@H]([C@@H](C)O)[C@@H](O)[C@H](O)[C@H]2O)cc1` [Example 46, 2-(4-Ethoxybenzyl)-3-fluoro-5-hydroxymethyl-phenyl 7-deoxy-D-glycero-β-D-gluco-heptopyranoside] had an IC50 of 16 nM. Turning to `CCc1ccc(Cc2c(F)cc(CO)cc2O[C@@H]2O[C@H]([C@@H](C)O)[C@@H](O)[C@H](O)[C@H]2O)cc1` [Example 47, 2-(4-Ethylbenzyl)-3-fluoro-5-hydroxymethyl-phenyl 7-deoxy-D-glycero-β-D-gluco-heptopyranoside], it took 38 nM to reach half-maximal inhibition (IC50). This IC50 lies about 2.4-fold higher than the previous one.

In turn, `COc1ccc(Cc2c(Cl)cc(CO)cc2O[C@@H]2O[C@H]([C@H](C)O)[C@@H](O)[C@H](O)[C@H]2O)cc1` [Example 57, 3-Chloro-5-hydroxymethyl-2-(4-methoxybenzyl)phenyl 7-deoxy-L-glycero-β-D-gluco-heptopyranoside] had an IC50 of 11 nM. Compared with the last compound, the IC50 is about 3.5-fold lower. The figure for `C[C@@H](O)[C@H]1O[C@@H](Oc2cc(CO)ccc2Cc2ccc(OC3CC3)cc2)[C@H](O)[C@@H](O)[C@@H]1O` [Example 60, 2-(4-Cyclopropyloxybenzyl)-5-hydroxymethylphenyl 7-deoxy-D-glycero-β-D-gluco-heptopyranoside] is 12 nM. On to `C[C@@H](O)[C@H]1O[C@@H](Oc2cc(CO)ccc2Cc2ccc(C3CC3)cc2)[C@H](O)[C@@H](O)[C@@H]1O` [Example 62, 2-(4-Cyclopropylbenzyl)-5-hydroxymethylphenyl 7-deoxy-D-glycero-β-D-gluco-heptopyranoside], for which inhibition was half-maximal at 32 nM (IC50).

`C[C@@H](O)[C@H]1O[C@@H](Oc2cc(CO)cc(F)c2Cc2ccc(OC3CC3)cc2)[C@H](O)[C@@H](O)[C@@H]1O` [Example 63, 2-(4-Cyclopropoxybenzyl)-3-fluoro-5-hydroxymethyl-phenyl 7-deoxy-D-glycero-β-D-gluco-heptopyranoside] came in with an IC50 of 34 nM. In turn, `CSc1ccc(Cc2ccc(CO)cc2O[C@@H]2O[C@H]([C@@H](C)O)[C@@H](O)[C@H](O)[C@H]2O)cc1` [Example 66, 5-Hydroxymethyl-2-(4-methylsulfanylbenzyl)phenyl 7-deoxy-D-glycero-β-D-gluco-heptopyranoside] showed an IC50 of 23 nM.

The compound `CCc1ccc(Cc2ccc(CCO)cc2O[C@@H]2O[C@H]([C@@H](C)O)[C@@H](O)[C@H](O)[C@H]2O)cc1` [Example 67, 2-(4-Ethylbenzyl)-5-(2-hydroxyethyl)phenyl 7-deoxy-D-glycero-β-D-gluco-heptopyranoside] had an IC50 of 30 nM. The figure for `C[C@@H](O)[C@H]1O[C@@H](Oc2cc(CO)ccc2Cc2ccc(CCCO)cc2)[C@H](O)[C@@H](O)[C@@H]1O` [Example 68, 5-Hydroxymethyl-2-[4-(3-hydroxypropyl)benzyl]phenyl 7-deoxy-D-glycero-β-D-gluco-heptopyranoside] is 12 nM; for `COc1ccc(Cc2c(C)cc(C)cc2O[C@@H]2O[C@H]([C@@H](C)O)[C@@H](O)[C@H](O)[C@H]2O)cc1F` [Example 69, 2-(3-Fluoro-4-methoxybenzyl)-3,5-dimethylphenyl 7-deoxy-D-glycero-β-D-gluco-heptopyranoside] it is 40 nM. The figure for `Cc1cc(C)c(Cc2ccc(CCO)cc2)c(O[C@@H]2O[C@H]([C@@H](C)O)[C@@H](O)[C@H](O)[C@H]2O)c1` [Example 70, 2-[4-(2-Hydroxyethyl)benzyl]-3,5-dimethylphenyl 7-deoxy-D-glycero-β-D-gluco-heptopyranoside] is 40 nM; for `CCCOc1ccc(Cc2c(F)cc(CO)cc2O[C@@H]2O[C@H]([C@@H](C)O)[C@@H](O)[C@H](O)[C@H]2O)cc1` [Example 74, 3-Fluoro-5-hydroxymethyl-2-(4-propoxybenzyl)phenyl 7-deoxy-D-glycero-β-D-gluco-heptopyranoside] it is 47 nM; for `CC(C)Oc1ccc(Cc2c(F)cc(CO)cc2O[C@@H]2O[C@H]([C@@H](C)O)[C@@H](O)[C@H](O)[C@H]2O)cc1` [Example 75, 3-Fluoro-5-hydroxymethyl-2-(4-isopropoxybenzyl)phenyl 7-deoxy-D-glycero-β-D-gluco-heptopyranoside] it is 38 nM. The figure for `COc1ccc(Cc2c(C)cc(C)cc2O[C@@H]2O[C@H]([C@@H](C)O)[C@@H](O)[C@H](O)[C@H]2O)cc1` [Example 77, 3,5-Dimethyl-2-(4-methoxybenzyl)phenyl 7-deoxy-D-glycero-β-D-gluco-heptopyranoside] is 25 nM; for `COc1ccc(Cc2ccc(CO)cc2O[C@@H]2O[C@H]([C@@H](C)O)[C@@H](O)[C@H](O)[C@H]2O)cc1F` [Example 78, 2-(3-Fluoro-4-methoxybenzyl)-5-hydroxymethylphenyl 7-deoxy-D-glycero-β-D-gluco-heptopyranoside] it is 11 nM.
